From patent publication US4559323A, “A41030 Antibiotics” (Eli Lilly and Company, priority 1984, dated 1985)
Where two headings read alike, the source gives them in different places.

Key:
B. thetaiotaomicron = type: cell-based
From the text: (§1) The agar-dilution procedure described by the International Collaborative study (ICS) group was used to determine the minimum inhibitory concentrations (MIC's).

Salmonella typhi = assay: Agar-dilution MIC; type: cell-based; conditions: Table 17, 24 hours
Fusobacterium symbiosum = assay: Agar-dilution MIC (anaerobes); type: cell-based; conditions: Table 14; Fusobacterium symbiosum 1470
[1] = test system: Peptostreptococcus intermedius; assay: Agar-dilution MIC (anaerobes); type: cell-based; conditions: Table 15
Clostridium difficile = type: cell-based; conditions: Table 14; Clostridium difficile 2994
Clostridium perfringens = type: cell-based; conditions: Table 14; Clostridium perfringens 81
[2] = test system: Fusobacterium necrophorum; assay: Agar-dilution MIC (anaerobes); type: cell-based; conditions: Table 14; Fusobacterium necrophorum 6054A
Bacteroides corrodens = assay: Agar-dilution MIC (anaerobes); type: cell-based; conditions: Table 12; 24-hour; B. corrodens 1874
From the text: (§2) The A41030 antibiotics, factors A, B, and C, are active against a genus of anaerobic bacteria identified as Bacteroides sp., the 24-hour MIC values being determined by the agar-dilution method, and are set forth in Table 12, which follows.

Bacteroides vulgatis [3] = assay: Agar-dilution MIC (anaerobes); type: cell-based; conditions: Table 12; 24-hour; B. vulgatis 1563
From the text: as §2

[4] = test system: Peptococcus asaccharolyticus; assay: Agar-dilution MIC (anaerobes); type: cell-based; conditions: Table 15
Method: (§3) The MIC values were determined by the agar-dilution method, and are recorded in Table 15, which follows.

Peptococcus prevoti = assay: Agar-dilution MIC (anaerobes); type: cell-based
Hemophilus influenzae = assay: Agar-dilution MIC; type: cell-based; conditions: Table 17, 24 hours
S. pneumoniae = assay: Experimental bacterial infection in mice, subcutaneous ED50; type: in vivo; conditions: two doses subcutaneously
Method: (§4) All of the A41030 factors tested have shown in vivo antimicrobial activity against experimental bacterial infections. When two doses of test compound were administered subcutaneously to mice in illustrative infections, the activity observed is measured as an ED50 value [effective dose in mg./kg. to protect fifty percent of the test animals: See Warren Wick, et al., J. Bacteriol. 81, 233-235 (1961)].

S. pyogenes [5] = assay: as above; type: in vivo; conditions: two doses subcutaneously
Method: as §4

Staph. aureus = assay: as above; type: in vivo; conditions: two doses subcutaneously
Method: as §4

[6] = Electrometric titration (pKa); type: physicochemical; conditions: electrometric titration in 66% dimethylformamide in water
Clostridium septicum = assay: Agar-dilution MIC (anaerobes); type: cell-based; conditions: Table 14; Clostridium septicum 1128
Bacteroides fragilis = assay: Agar-dilution MIC (anaerobes); type: cell-based
From the text: as §1

Solubility in solvents = type: physicochemical; conditions: solvents as named
From the text: The seven antibiotic factors are recovered from the fermentation and are obtained as a mixture, the A41030 complex. It will be recognized that the ratio of the factors in the A41030 complex will vary, depending upon the fermentation conditions used. The individual factors […], and G are separated and isolated as individual compounds, as hereinafter described.

Pc. constellatus = assay: Agar-dilution MIC (anaerobes); type: cell-based, Peptococcus constellatus; conditions: Table 15; Pc. constellatus 1468
Method: as §3

[7] = test system: Peptostreptococcus anaerobius; assay: Agar-dilution MIC (anaerobes); type: cell-based
Bacteroides vulgatis [8] = assay: Agar-dilution MIC (anaerobes); type: cell-based; conditions: Table 14; Bacteroides vulgatis 1211
[9] = test system: Streptococcus sp. (Group D); assay: Agar-dilution MIC; type: cell-based; conditions: Table 17, 24 hours
From the text: as §1

Streptococcus pyogenes = assay: Agar-dilution MIC; type: cell-based; conditions: Table 17; 24 hours; Streptococcus pyogenes C203
From the text: as §1

S. pyogenes [10] = assay: In vivo oral activity against S. pyogenes in mice

Q: Which MIC (B. thetaiotaomicron; Table 12, 24-hour, B. thetaiotaomicron 1438) does the source give for A41030 factor C here?
A: Its MIC is 32 µg/mL.

Q: And the MIC (B. thetaiotaomicron; Table 12, 24-hour, B. thetaiotaomicron 1900A)?
A: The MIC was 128 µg/mL.

Q: And the MIC (B. thetaiotaomicron; Table 14, Bacteroides thetalotaomicron 1438)?
A: Its MIC is 64 µg/mL.

Q: And the MIC (Salmonella typhi; Salmonella typhi 1335)?
A: The MIC was over 128 µg/mL.

Q: And the MIC (Salmonella typhi; Salmonella typhi X514)?
A: Its MIC is over 128 µg/mL.

Q: And the MIC (Fusobacterium symbiosum)?
A: Its MIC is 1.0 µg/mL.

Q: What about the MIC ([1]; Ps. intermedius 1264) of the same substance?
A: Its MIC is at most 0.03 µg/mL.

Q: And the MIC ([1]; Ps. intermedius 1624)?
A: The MIC was 1.0 µg/mL.

Q: What about the MIC (Clostridium difficile) of the same substance?
A: Its MIC is 16 µg/mL.

Q: And the MIC (Clostridium perfringens)?
A: The MIC was 1.0 µg/mL.

Q: What about the MIC [2] of the same substance?
A: The MIC was 16 µg/mL.

Q: And the MIC (Bacteroides corrodens)?
A: The MIC was 32 µg/mL.

Q: What about the MIC (Bacteroides vulgatis [3]) of the same substance?
A: Its MIC is 32 µg/mL.

Q: What about the MIC ([4]; Pc. asaccharolyticus 1302) of the same substance?
A: The MIC was 0.125 µg/mL.

Q: And the MIC ([4]; Pc. asaccharolyticus 1344)?
A: Its MIC is 1.0 µg/mL.

Q: And the MIC (Peptococcus prevoti; Table 14, Peptococcus prevoti 1281)?
A: The MIC was at most 0.25 µg/mL.

Q: What about the MIC (Peptococcus prevoti; Table 15, Pc. prevoti 1281) of the same substance?
A: The MIC was 1.0 µg/mL.

Q: What about the MIC (Peptococcus prevoti; Table 15, Pc. prevoti 1293) of the same substance?
A: The MIC was 0.5 µg/mL.

Q: What about the MIC (Peptococcus prevoti; Table 15, Pc. prevoti 1407) of the same substance?
A: Its MIC is 1.0 µg/mL.

Q: And the MIC (Hemophilus influenzae; Haemophilus influenzae 251)?
A: The MIC was 4 µg/mL.

Q: What about the MIC (Hemophilus influenzae; Haemophilus influenzae Brun) of the same substance?
A: The MIC was 16 µg/mL.

Q: What about the ED50 (S. pneumoniae) of the same substance?
A: Its ED50 is 6.7 mg/kg.

Q: And the ED50 (S. pyogenes [5])?
A: The ED50 was 10.4 mg/kg.

Q: And the ED50 (Staph. aureus)?
A: Its ED50 is under 0.43 mg/kg.

Q: And the “pKa, first titratable group” value [6]?
A: The value was “about 5.5”.

Q: What about the MIC (Clostridium septicum) of the same substance?
A: The MIC was 8 µg/mL.

Q: What about the MIC (Bacteroides fragilis; Table 12, 24-hour, B. fragilis 2) of the same substance?
A: The MIC was 32 µg/mL.

Q: And the MIC (Bacteroides fragilis; Table 12, 24-hour, B. fragilis 9)?
A: The MIC was 32 µg/mL.

Q: What about the MIC (Bacteroides fragilis; Table 12, 24-hour, B. fragilis 103) of the same substance?
A: The MIC was 32 µg/mL.

Q: And the MIC (Bacteroides fragilis; Table 12, 24-hour, B. fragilis 104)?
A: Its MIC is 32 µg/mL.

Q: What about the MIC (Bacteroides fragilis; Table 12, 24-hour, B. fragilis 106) of the same substance?
A: The MIC was 32 µg/mL.

Q: What about the MIC (Bacteroides fragilis; Table 12, 24-hour, B. fragilis 107) of the same substance?
A: The MIC was 32 µg/mL.

Q: What about the MIC (Bacteroides fragilis; Table 12, 24-hour, B. fragilis 108) of the same substance?
A: The MIC was 64 µg/mL.

Q: What about the MIC (Bacteroides fragilis; Table 12, 24-hour, B. fragilis 110) of the same substance?
A: The MIC was 64 µg/mL.

Q: And the MIC (Bacteroides fragilis; Table 12, 24-hour, B. fragilis 111)?
A: Its MIC is 32 µg/mL.

Q: What about the MIC (Bacteroides fragilis; Table 12, 24-hour, B. fragilis 112) of the same substance?
A: The MIC was 32 µg/mL.

Q: What about the MIC (Bacteroides fragilis; Table 12, 24-hour, B. fragilis 113) of the same substance?
A: Its MIC is 32 µg/mL.

Q: And the MIC (Bacteroides fragilis; Table 12, 24-hour, B. fragilis 1451)?
A: The MIC was 64 µg/mL.

Q: And the MIC (Bacteroides fragilis; Table 12, 24-hour, B. fragilis 1470)?
A: Its MIC is 64 µg/mL.

Q: And the MIC (Bacteroides fragilis; Table 12, 24-hour, B. fragilis 1877)?
A: Its MIC is 32 µg/mL.

Q: And the MIC (Bacteroides fragilis; Table 12, 24-hour, B. fragilis 9032)?
A: Its MIC is 32 µg/mL.

Q: And the MIC (Bacteroides fragilis; Table 14, Bacteroides fragilis 1877)?
A: Its MIC is 16 µg/mL.

Q: What about the MIC (Bacteroides fragilis; Table 14, Bacteroides fragilis 1936B) of the same substance?
A: The MIC was 32 µg/mL.

Q: And the Solubility (Solubility in solvents)?
A: Its Solubility is “soluble in the same solvents as factor A”.

Q: And the MIC (Pc. constellatus)?
A: Its MIC is 0.5 µg/mL.

Q: What about the MIC ([7]; Table 14, Peptostreptococcus anaerobius 1428) of the same substance?
A: Its MIC is at most 0.25 µg/mL.

Q: What about the MIC ([7]; Table 15, Ps. anaerobius 52) of the same substance?
A: The MIC was 0.25 µg/mL.

Q: And the MIC ([7]; Table 15, Ps. anaerobius 59)?
A: Its MIC is 0.25 µg/mL.

Q: And the MIC ([7]; Table 15, Ps. anaerobius 1418)?
A: Its MIC is at most 0.03 µg/mL.

Q: And the MIC ([7]; Table 15, Ps. anaerobius 1428)?
A: The MIC was 0.25 µg/mL.

Q: And the MIC ([7]; Table 15, Ps. anaerobius 1451)?
A: Its MIC is 0.25 µg/mL.

Q: And the MIC ([7]; Table 15, Ps. anaerobius 1477)?
A: Its MIC is 0.25 µg/mL.

Q: What about the MIC (Bacteroides vulgatis [8]) of the same substance?
A: The MIC was 32 µg/mL.

Q: And the MIC ([9]; Streptococcus sp. Group D 9960)?
A: Its MIC is 4 µg/mL.

Q: And the MIC ([9]; Streptococcus sp. Group D X66)?
A: Its MIC is 2 µg/mL.

Q: And the MIC (Streptococcus pyogenes)?
A: Its MIC is 1 µg/mL.

Q: What about the “in vivo oral activity” value (S. pyogenes [10]) of the same substance?
A: The value was over 300 mg./kg.X2.
